Measurements published in US9399646B2 (Genentech, Inc., priority 2010, dated 2016).

Legend:
ER-α in MCF-7 cells = biological target: T1, ER-α in MCF-7 cells (Homo sapiens, UniProt P03372); assay: Breast cancer cell ER-α in cell western assay (SP1); format: cell-based; design: endogenous in cells; host or cells: MCF-7; settings: 4 or 24 hr post compound addition; for Emax: MCF7, SP1 antibody, read-out: ER-α In Cell Western Assay (SP1) Max Response; for DC50: SP1 antibody, read-out: ER-α In Cell Western Assay (SP1) IC50
T1 sequence (P03372 1-595): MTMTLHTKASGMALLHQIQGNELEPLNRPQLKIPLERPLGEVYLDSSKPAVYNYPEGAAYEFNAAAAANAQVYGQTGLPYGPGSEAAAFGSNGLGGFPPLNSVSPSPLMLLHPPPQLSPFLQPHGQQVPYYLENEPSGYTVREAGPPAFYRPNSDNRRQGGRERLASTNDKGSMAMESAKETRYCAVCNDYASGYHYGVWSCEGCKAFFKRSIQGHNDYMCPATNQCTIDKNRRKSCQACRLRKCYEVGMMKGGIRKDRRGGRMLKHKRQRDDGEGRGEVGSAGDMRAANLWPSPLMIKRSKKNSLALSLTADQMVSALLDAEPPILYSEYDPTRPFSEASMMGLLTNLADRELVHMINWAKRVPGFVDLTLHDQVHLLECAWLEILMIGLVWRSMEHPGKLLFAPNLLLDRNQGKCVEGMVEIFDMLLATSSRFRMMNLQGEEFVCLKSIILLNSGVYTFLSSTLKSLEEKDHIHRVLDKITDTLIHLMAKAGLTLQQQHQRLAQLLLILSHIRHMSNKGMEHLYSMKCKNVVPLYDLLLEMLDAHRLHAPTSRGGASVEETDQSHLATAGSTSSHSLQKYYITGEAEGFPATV
Summary of the method: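 Fixed cells were immunostained with SP1 anti-ER antibody; ER signal (800 nm) was normalized to DRAQ5 DNA signal (700 nm) and expressed as % of untreated cells.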

MCF-7 cells = assay: Breast cancer cell viability assay (CellTiter-Glo, 5 days); format: cell-based; settings: 5 days' compound exposure; for IC50: Homo sapiens, MCF7, 120 h
Summary of the method: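 MCF-7 cells, 320 per well in RPMI with 10% FBS and 20 mM HEPES, adhered overnight, then exposed 5 days to an eleven-point semilog dilution (final 0.3-0.000003 μM). CellTiter-Glo luminescence read; % viability = (sample − cell-free background)/(untreated − background) × 100.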

Emax (ER-α in MCF-7 cells) [%] | DC50 (ER-α in MCF-7 cells) [nM] | IC50 (MCF-7 cells) [nM] | Compound | MCF7 Viability Assay Max Response (MCF-7 cells)
≥ 40 | > 100 | > 100 | CC/C(=C(/c1ccc(/C=C/C(=O)O)cc1)c1ccc2[nH]ncc2c1)c1cccc(N2CCOCC2)c1 [Compound 265, (E)-3-(4-((E)-1-(1H-Indazol-5-yl)-2-(3-morpholinophenyl)but-1-en-1-yl)phenyl)acrylic acid] | ++ (++ = a single % value ≧ 40%)
≥ 40 | ≤ 100 | ≤ 100 | CC/C(=C(/c1ccc(/C=C/C(=O)O)cc1)c1ccc2[nH]ncc2c1)c1ccc2nccnc2c1 [Compound 266, (E)-3-(4-((E)-1-(1H-Indazol-5-yl)-2-(quinoxalin-6-yl)but-1-en-1-yl)phenyl)acrylic acid] | ++ (++ = a single % value ≧ 40%)
≥ 40 | ≤ 100 | ≤ 100 | CC/C(=C(/c1ccc(/C=C/C(=O)O)cc1)c1ccc2[nH]ncc2c1)c1ccsc1Cl [Compound 267, (E)-3-(4-((E)-2-(2-Chlorothiophen-3-yl)-1-(1H-indazol-5-yl)but-1-en-1-yl)phenyl)acrylic acid] | ++ (++ = a single % value ≧ 40%)
≥ 40 | ≤ 100 | > 100 | CC/C(=C(/c1ccc(/C=C/C(=O)O)cc1)c1ccc2[nH]ncc2c1)c1cc2ccccc2s1 [Compound 268, (E)-3-(4-((E)-2-(Benzo[b]thiophen-2-yl)-1-(1H-indazol-5-yl)but-1-en-1-yl)phenyl)acrylic acid] | ++ (++ = a single % value ≧ 40%)
≥ 40 | ≤ 100 | ≤ 100 | CC/C(=C(/c1ccc(/C=C/C(=O)O)cc1)c1ccc2[nH]ncc2c1)c1cccc(Oc2ccc(F)cc2)c1 [Compound 269, (E)-3-(4-((E)-2-(3-(4-Fluorophenoxy)phenyl)-1-(1H-indazol-5-yl)but-1-en-1-yl)phenyl)acrylic acid] | ++ (++ = a single % value ≧ 40%)
≥ 40 | > 100 | > 100 | CC/C(=C(/c1ccc(/C=C/C(=O)O)cc1)c1ccc2[nH]ncc2c1)c1cc2c(s1)CCN(C)C2 [Compound 270, (E)-3-(4-((E)-1-(1H-Indazol-5-yl)-2-(5-methyl-4,5,6,7-tetrahydrothieno[3,2-c]pyridin-2-yl)but-1-en-1-yl)phenyl)acrylic acid] | ++ (++ = a single % value ≧ 40%)
≥ 40 | ≤ 100 | ≤ 100 | CC/C(=C(/c1ccc(/C=C/C(=O)O)cc1)c1ccc2[nH]ncc2c1)c1csc(-c2ccccc2)c1 [Compound 271, (E)-3-(4-((E)-1-(1H-Indazol-5-yl)-2-(5-phenylthiophen-3-yl)but-1-en-1-yl)phenyl)acrylic acid] | ++ (++ = a single % value ≧ 40%)
≥ 40 | ≤ 100 | ≤ 100 | CC/C(=C(/c1ccc(/C=C/C(=O)O)cc1)c1ccc2[nH]ncc2c1)c1ccc2sccc2c1 [Compound 272, (E)-3-(4-((E)-2-(Benzo[b]thiophen-5-yl)-1-(1H-indazol-5-yl)but-1-en-1-yl)phenyl)acrylic acid] | ++ (++ = a single % value ≧ 40%)
≥ 40 | ≤ 100 | ≤ 100 | CC/C(=C(/c1ccc(/C=C/C(=O)O)cc1)c1ccc2[nH]ncc2c1)c1ccc2sc(C)nc2c1 [Compound 273, (E)-3-(4-((E)-1-(1H-Indazol-5-yl)-2-(2-methylbenzo[d]thiazol-5-yl)but-1-en-1-yl)phenyl)acrylic acid] | ++ (++ = a single % value ≧ 40%)
≥ 40 | ≤ 100 | ≤ 100 | CC/C(=C(/c1ccc(/C=C/C(=O)O)cc1)c1ccc2[nH]ncc2c1)c1cc(C)sc1C [Compound 274, (E)-3-(4-((E)-2-(2,5-Dimethylthiophen-3-yl)-1-(1H-indazol-5-yl)but-1-en-1-yl)phenyl)acrylic acid] | ++ (++ = a single % value ≧ 40%)
≥ 40 | ≤ 100 | ≤ 100 | CC/C(=C(/c1ccc(/C=C/C(=O)O)cc1)c1ccc2scnc2c1)c1ccc(F)cc1Cl [Compound 275, (E)-3-(4-((E)-1-(Benzo[d]thiazol-5-yl)-2-(2-chloro-4-fluorophenyl)but-1-en-1-yl)phenyl)acrylic acid] | ++ (++ = a single % value ≧ 40%)
≥ 40 | ≤ 100 | ≤ 100 | CC/C(=C(/c1ccc(/C=C/C(=O)O)cc1)c1ccc2scnc2c1)c1cscc1C [Compound 276, (E)-3-(4-((E)-1-(Benzo[d]thiazol-5-yl)-2-(4-methylthiophen-3-yl)but-1-en-1-yl)phenyl)acrylic acid] | ++ (++ = a single % value ≧ 40%)
≥ 40 | ≤ 100 | ≤ 100 | O=C(O)/C=C/c1ccc(/C(=C(\c2ccc(F)cc2Cl)C2CCC2)c2ccc3scnc3c2)cc1 [Compound 278, (E)-3-(4-((E)-1-(Benzo[d]thiazol-5-yl)-2-(2-chloro-4-fluorophenyl)-2-cyclobutylvinyl)phenyl)acrylic acid] | ++ (++ = a single % value ≧ 40%)
≥ 40 | ≤ 100 | ≤ 100 | Cc1cscc1/C(=C(\c1ccc(/C=C/C(=O)O)cc1)c1ccc2scnc2c1)C1CCC1 [Compound 279, (E)-3-(4-((E)-1-(Benzo[d]thiazol-5-yl)-2-cyclobutyl-2-(4-methylthiophen-3-yl)vinyl)phenyl)acrylic acid] | ++ (++ = a single % value ≧ 40%)
≥ 40 | ≤ 100 | ≤ 100 | CC/C(=C(/c1ccc(/C=C/C(=O)O)cc1)c1ccc2scnc2c1)c1ccccc1Cl [Compound 280, (E)-3-(4-((E)-1-(Benzo[d]thiazol-5-yl)-2-(2-chlorophenyl)but-1-en-1-yl)phenyl)acrylic acid] | ++ (++ = a single % value ≧ 40%)
≥ 40 | ≤ 100 | > 100 | CC/C(=C(/c1ccc(/C=C/C(=O)O)cc1)c1ccc2scnc2c1)c1ccc(F)cc1 [Compound 281, (E)-3-(4-((E)-1-(Benzo[d]thiazol-5-yl)-2-(4-fluorophenyl)but-1-en-1-yl)phenyl)acrylic acid] | ++ (++ = a single % value ≧ 40%)
≥ 40 | ≤ 100 | ≤ 100 | CC/C(=C(/c1ccc(/C=C/C(=O)O)cc1)c1ccc2scnc2c1)c1ccc(F)cc1C [Compound 282, (E)-3-(4-((E)-1-(Benzo[d]thiazol-5-yl)-2-(4-fluoro-2-methylphenyl)but-1-en-1-yl)phenyl)acrylic acid] | ++ (++ = a single % value ≧ 40%)
≥ 40 | ≤ 100 | ≤ 100 | CC/C(=C(/c1ccc(/C=C/C(=O)O)cc1)c1ccc2scnc2c1)c1ccccc1C [Compound 283, (E)-3-(4-((E)-1-(Benzo[d]thiazol-5-yl)-2-(o-tolyl)but-1-en-1-yl)phenyl)acrylic acid] | ++ (++ = a single % value ≧ 40%)
